This passage reports remaining binding results from PMC7206119, “RIP1 inhibition blocks inflammatory diseases but not tumor growth or metastases” (Cell Death and Differentiation, 2019).

Some targets named below: KIT(L576P) (Homo sapiens, UniProt P10721, L576P); PKNB(M.tuberculosis) (Mycobacterium tuberculosis, UniProt P9WI81); ZAP70 (Homo sapiens, UniProt P43403); SIK2 (Homo sapiens, UniProt Q9H0K1); CLK1 (Homo sapiens, UniProt P49759); ERBB4 (Homo sapiens, UniProt Q15303); CIT (Homo sapiens, UniProt O14578); MAP3K4 (Homo sapiens, UniProt Q9Y6R4); RIOK1 (Homo sapiens, UniProt Q9BRS2); TNK2 (Homo sapiens, UniProt Q07912); CSNK1E (Homo sapiens, UniProt P49674); LRRK2 (Homo sapiens, UniProt Q5S007); CDK8 (Homo sapiens, UniProt P49336); TNNI3K (Homo sapiens, UniProt Q59H18).

Holding throughout (experiment): biochemical
What all share (set-up): DiscoverX kinase panel, active-site competition binding (KINOMEscan type), percent of control at one concentration
Holding throughout (conditions): competition binding, percent of control

The target of another assay is T1, PRKR (Homo sapiens, UniProt P19525).
T1 construct: gene EIF2AK2

Another assay concerns the target T2, SIK (Homo sapiens, UniProt P57059).
T2 construct: gene SIK1

The target of assay [1] is T3, ABL1(H396P)-nonphosphorylated (Homo sapiens, UniProt P00519, H396P).
T3 construct: nonphosphorylated

The target in a further assay is T4, MLK1 (Homo sapiens, UniProt P80192).
T4 construct: gene MAP3K9

The target in a further assay is T5, PAK7 (Homo sapiens, UniProt Q9P286).
T5 construct: gene PAK5

A further assay deals with T6, CAMK1B (Homo sapiens, UniProt Q6P2M8).
T6 construct: gene PNCK

Another assay concerns the target T7, ICK (Homo sapiens, UniProt Q9UPZ9).
T7 construct: gene CILK1

ZAP70, sequence (P43403 whole entry): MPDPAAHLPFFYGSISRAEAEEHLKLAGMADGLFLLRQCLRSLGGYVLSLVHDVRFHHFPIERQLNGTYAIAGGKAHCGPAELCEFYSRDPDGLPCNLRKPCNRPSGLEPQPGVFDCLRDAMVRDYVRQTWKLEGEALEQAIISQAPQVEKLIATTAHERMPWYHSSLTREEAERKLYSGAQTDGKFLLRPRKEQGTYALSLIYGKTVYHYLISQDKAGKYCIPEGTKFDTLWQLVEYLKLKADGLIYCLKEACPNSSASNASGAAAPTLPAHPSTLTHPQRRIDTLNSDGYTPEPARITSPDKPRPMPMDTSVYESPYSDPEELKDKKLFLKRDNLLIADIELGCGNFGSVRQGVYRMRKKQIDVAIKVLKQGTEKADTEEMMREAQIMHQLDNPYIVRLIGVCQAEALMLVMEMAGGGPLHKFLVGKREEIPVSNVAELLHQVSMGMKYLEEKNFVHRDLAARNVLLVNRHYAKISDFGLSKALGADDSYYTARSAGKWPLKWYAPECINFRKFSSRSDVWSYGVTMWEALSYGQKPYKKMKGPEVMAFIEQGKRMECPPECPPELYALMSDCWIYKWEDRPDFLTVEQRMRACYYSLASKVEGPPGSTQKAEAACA
MAP3K4, sequence (Q9Y6R4 whole entry): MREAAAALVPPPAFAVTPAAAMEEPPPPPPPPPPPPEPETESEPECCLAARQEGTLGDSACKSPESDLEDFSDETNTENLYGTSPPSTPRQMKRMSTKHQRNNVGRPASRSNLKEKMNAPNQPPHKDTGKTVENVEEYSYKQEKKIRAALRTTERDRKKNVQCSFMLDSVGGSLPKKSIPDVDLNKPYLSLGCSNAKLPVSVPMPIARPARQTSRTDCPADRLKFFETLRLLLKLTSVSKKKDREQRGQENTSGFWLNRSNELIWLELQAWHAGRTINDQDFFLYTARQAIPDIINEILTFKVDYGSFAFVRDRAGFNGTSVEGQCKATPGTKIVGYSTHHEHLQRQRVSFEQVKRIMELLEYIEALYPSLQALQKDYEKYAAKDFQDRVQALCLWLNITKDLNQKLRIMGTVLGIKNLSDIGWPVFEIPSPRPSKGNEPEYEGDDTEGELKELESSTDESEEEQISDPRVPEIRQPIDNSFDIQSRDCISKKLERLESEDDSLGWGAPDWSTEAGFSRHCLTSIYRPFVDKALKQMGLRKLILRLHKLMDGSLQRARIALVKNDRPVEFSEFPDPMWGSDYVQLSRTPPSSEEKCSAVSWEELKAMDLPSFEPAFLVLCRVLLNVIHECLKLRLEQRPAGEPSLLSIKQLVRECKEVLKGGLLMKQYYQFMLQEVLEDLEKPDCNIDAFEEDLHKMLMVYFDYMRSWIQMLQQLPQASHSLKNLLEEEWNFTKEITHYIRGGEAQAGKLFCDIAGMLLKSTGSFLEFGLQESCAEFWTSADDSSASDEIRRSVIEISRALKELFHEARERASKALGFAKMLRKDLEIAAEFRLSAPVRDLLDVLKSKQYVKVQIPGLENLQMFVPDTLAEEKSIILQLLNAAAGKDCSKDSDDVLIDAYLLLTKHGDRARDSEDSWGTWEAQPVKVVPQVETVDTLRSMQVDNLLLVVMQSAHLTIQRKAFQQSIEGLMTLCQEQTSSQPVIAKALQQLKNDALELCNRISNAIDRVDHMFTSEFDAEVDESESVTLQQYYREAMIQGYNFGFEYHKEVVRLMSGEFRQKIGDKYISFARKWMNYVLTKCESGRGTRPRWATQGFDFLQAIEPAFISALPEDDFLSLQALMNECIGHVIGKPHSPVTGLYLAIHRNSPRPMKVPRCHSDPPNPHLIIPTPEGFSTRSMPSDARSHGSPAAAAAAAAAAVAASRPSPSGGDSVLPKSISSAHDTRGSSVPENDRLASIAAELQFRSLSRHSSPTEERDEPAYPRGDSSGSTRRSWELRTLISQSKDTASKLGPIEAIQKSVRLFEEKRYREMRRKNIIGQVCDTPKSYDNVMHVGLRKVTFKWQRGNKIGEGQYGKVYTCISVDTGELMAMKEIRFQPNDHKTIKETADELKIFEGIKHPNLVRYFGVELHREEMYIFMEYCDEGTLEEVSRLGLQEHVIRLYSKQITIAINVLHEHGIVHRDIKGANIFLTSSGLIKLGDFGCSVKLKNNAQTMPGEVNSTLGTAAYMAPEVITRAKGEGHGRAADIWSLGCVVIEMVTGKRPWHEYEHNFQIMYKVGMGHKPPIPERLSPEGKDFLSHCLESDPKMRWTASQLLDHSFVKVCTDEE
CDK8, sequence (P49336 whole entry): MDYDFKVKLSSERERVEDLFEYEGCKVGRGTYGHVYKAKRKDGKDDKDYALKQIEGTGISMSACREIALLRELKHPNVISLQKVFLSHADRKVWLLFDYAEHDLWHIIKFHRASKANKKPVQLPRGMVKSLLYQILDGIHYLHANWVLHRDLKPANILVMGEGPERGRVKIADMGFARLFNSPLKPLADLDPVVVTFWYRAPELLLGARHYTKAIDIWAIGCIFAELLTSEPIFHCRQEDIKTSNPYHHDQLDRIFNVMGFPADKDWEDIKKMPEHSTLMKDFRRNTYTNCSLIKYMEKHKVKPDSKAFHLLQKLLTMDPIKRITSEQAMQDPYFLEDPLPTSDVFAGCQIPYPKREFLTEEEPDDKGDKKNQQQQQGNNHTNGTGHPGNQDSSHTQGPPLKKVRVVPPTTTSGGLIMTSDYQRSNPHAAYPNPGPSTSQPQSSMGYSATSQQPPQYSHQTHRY
T4 sequence (P80192 whole entry): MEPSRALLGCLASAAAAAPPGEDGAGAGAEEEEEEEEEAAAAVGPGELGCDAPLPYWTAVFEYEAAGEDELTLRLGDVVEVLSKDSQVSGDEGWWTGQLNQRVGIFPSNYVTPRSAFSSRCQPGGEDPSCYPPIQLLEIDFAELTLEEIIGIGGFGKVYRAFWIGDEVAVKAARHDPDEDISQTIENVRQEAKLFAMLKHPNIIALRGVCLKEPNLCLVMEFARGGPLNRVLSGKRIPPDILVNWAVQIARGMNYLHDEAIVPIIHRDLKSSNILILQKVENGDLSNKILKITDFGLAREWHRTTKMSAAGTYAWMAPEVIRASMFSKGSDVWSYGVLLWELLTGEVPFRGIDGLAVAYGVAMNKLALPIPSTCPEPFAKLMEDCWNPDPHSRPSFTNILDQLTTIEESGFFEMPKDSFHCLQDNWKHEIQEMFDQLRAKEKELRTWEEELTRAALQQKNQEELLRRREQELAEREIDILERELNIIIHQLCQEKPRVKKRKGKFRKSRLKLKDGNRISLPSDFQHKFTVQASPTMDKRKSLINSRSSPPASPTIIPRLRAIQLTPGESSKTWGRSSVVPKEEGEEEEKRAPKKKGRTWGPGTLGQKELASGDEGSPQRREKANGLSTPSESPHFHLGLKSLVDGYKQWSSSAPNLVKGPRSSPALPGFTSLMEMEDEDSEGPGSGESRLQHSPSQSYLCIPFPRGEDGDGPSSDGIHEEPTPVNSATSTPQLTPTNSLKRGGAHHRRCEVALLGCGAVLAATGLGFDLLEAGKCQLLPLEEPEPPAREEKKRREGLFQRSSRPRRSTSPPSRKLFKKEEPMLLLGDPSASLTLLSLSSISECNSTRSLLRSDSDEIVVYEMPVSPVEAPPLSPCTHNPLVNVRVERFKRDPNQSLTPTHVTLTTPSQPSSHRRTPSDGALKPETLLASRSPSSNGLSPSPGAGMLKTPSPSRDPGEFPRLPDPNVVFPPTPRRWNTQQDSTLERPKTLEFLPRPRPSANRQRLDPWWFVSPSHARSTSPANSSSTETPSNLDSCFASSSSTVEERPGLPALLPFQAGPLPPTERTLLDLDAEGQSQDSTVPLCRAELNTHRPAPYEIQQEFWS
CSNK1E, sequence (P49674 whole entry): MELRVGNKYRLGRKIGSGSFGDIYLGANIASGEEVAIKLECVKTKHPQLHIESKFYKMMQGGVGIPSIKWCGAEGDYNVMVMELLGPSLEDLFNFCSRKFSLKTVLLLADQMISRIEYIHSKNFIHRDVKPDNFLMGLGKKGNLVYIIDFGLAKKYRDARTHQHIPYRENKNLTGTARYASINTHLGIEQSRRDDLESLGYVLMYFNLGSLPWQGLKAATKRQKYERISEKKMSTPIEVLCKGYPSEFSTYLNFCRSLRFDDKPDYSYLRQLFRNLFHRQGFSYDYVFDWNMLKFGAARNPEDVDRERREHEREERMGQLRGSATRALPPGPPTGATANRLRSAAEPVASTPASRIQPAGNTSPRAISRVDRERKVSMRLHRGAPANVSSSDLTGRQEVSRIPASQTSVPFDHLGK
CLK1, sequence (P49759 whole entry): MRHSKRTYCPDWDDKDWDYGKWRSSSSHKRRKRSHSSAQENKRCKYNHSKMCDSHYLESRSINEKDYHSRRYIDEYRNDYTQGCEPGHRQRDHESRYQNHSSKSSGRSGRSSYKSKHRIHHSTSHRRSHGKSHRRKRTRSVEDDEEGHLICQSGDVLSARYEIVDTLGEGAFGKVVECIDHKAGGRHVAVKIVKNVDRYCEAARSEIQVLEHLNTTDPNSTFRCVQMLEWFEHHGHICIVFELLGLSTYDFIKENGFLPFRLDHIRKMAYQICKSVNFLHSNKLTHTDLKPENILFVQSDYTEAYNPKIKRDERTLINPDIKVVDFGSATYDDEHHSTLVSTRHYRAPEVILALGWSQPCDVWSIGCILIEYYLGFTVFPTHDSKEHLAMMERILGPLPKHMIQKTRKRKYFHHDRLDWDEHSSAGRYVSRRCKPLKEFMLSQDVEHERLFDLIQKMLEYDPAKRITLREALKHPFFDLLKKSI
T6 sequence (Q6P2M8 whole entry): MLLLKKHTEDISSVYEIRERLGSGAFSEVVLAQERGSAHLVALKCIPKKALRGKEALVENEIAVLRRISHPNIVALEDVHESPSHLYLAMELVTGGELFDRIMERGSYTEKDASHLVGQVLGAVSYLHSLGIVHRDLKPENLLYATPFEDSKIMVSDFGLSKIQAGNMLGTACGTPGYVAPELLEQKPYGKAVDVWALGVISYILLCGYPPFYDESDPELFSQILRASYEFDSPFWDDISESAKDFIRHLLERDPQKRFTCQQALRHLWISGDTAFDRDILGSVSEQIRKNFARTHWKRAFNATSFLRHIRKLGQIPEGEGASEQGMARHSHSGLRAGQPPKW

Turning to `COc1cc2c(cn1)N(C)C(=O)[C@@H](NC(=O)c1nc3n(n1)[C@H](c1ccccc1)CC3)CC2` [GNE684, (S)-N-((S)-7-methoxy-1-methyl-2-oxo-2,3,4,5-tetrahydro-1H-pyrido[3,4-b]azepin-3-yl)-5-phenyl-6,7-dihydro-5H-pyrrolo[1,2-b][1,2,4]triazole-2-carboxamide], the remaining binding at 10 µM at KIT(L576P) was 100%; on PKNB(M.tuberculosis), 96%; at PRKR, 100%; on ZAP70, 100%; at SIK2 it was 98%; on CLK1, 90%. The remaining binding at 10 µM on ERBB4 amounted to 85%; at CIT, 100%; at SIK it was 100%; on MAP3K4, 92%; in assay [1], 69%; on RIOK1 it was 84%. Further, the remaining binding at 10 µM at MLK1 worked out at 99%; at PAK7, 90%; on TNK2 it was 100%; on CAMK1B, 100%; on CSNK1E it was 74%; at LRRK2, 91%. In addition, the remaining binding at 10 µM was found to be 97% on CDK8, 100% at TNNI3K and 93% at ICK.
